According to patent publication US10154970B2, “Methods for immunomodulation of cancer and infectious disease therapy” (The Regents of the University of California, priority 2014, dated 2018):
Like-named read-outs stand apart in the source and are kept apart here.

Columns and labels:
[1] = tested on: regulatory T cells (Tregs); assay: Experiment 5: regulatory T cells (FoxP3+/CD4+) by flow cytometry; format: in vivo, human MUC1.Tg C57BL/6 mice; settings: TRIP 100 mg/kg or letrozole 0.8 mg/kg daily oral 14 days
Description: A total of 32 female human MUC1.Tg C57BL/6 mice, starting at approximately six weeks of age, were treated with urethane as described (Wurz G T. et al., J. Transl. Med., 11:64 (2013)). Two weeks following the final dose of urethane (Week 17), the mice were randomized into four treatment groups of approximately equal average weight (n=8, all groups): Control (no treatment); TRIP (i.e., ospemifene) 100 mg/kg; estradiol 25 μg/kg; and letrozole 0.8 mg/kg. TRIP and letrozole were prepared in DMSO and peanut oil as described above in Experiment 2 and administered daily for 14 days by oral gavage (100 μL). Estradiol was dissolved in 100% ethanol, diluted in PBS to achieve the desired concentration, and then administered daily for 14 days by s.c. injection at rotating sites using a 25-gauge needle. In Week 19, the study was terminated, 24 hours after the last treatments, and serum and spleens were collected for surface marker and Treg analyses.
After two weeks of treatment, lymphocytes were isolated from spleen. T-cell surface markers (CD4, CD8, PD-1, CD28) and regulatory T cells (Tregs) were analyzed by flow cytometry.

IFN-γ = settings: for antigen-specific immune response to the PV: short-course treatment
Description: FIG. 5. Effect of TRIP on the immune response to an antigen-specific peptide vaccine (PV). Mice received 8 weekly 10-μg doses of PV and daily oral TRIP treatment for the final 16 days of the study. Lymphocytes were isolated 48 hours after the final dose of PV for the enzyme-linked immunosorbent spot (ELISpot) assay. Data are expressed as the number of spot forming cells (SFC)/500,000 lymphocytes following exposure to medium (no peptide), scrambled peptide, and BP25 peptide.
A total of 43 wild type C57BL/6 mice were assigned to four different treatment groups: Control (n=10); and TRIP (i.e., ospemifene) 10, 50, and 100 mg/kg (n=11, all TRIP groups). All mice received a full course of tecemotide (L-BLP25) peptide vaccine (PV) immunotherapy (eight weekly 10 μg doses administered subcutaneously (s.c.) as described in Wurz G T. et al., J. Transl. Med., 11:64 (2013)). During the final 16 days of immunotherapy, mice received daily oral doses of TRIP according to treatment group assignment. TRIP oral dosing solutions were prepared by dissolving an appropriate amount of the drug in pure dimethyl sulfoxide (DMSO) and then adding peanut oil to the desired final concentration (final DMSO concentration was 2%). All doses were administered in a volume of 100 μl using 20-gauge stainless steel oral feeding needles. Control mice were given diluent only. Forty-eight hours following the final dose of PV, all mice were euthanized for the collection of blood for cytokine analysis by multiplex and spleens for assessing immune response by enzyme-linked immunosorbent spot (ELISpot) assay.
Data are expressed as the number of spot forming cells (SFC)/500,000 lymphocytes following exposure to medium (no peptide), scrambled peptide, and BP25 peptide.

OCCOc1ccc(/C(=C(/CCCl)c2ccccc2)c2ccccc2)cc1 [TRIP, Z-2-[4-(4-chloro-1,2-diphenyl-but-1-enyl)-phenoxy]ethanol]
Tregs (FoxP3+/CD4+) compared to estradiol treatment [1]: significantly inhibited
IFN-γ immune response by ELISpot, TRIP combined with PV vs PV alone (IFN-γ; TRIP 10, 50, 100 mg/kg daily oral final 16 days + 8 weekly 10 μg PV s.c.): significantly increase
antigen-specific immune response to the PV (IFN-γ; high (100 mg/kg) dose of TRIP): significantly increased
antigen-specific immune response to the PV (IFN-γ; low (10 mg/kg) dose of TRIP): significantly increased
